Laboratory results reported in the NIST ThermoML archive (doi:10.1016/j.jct.2011.07.006).

Assay: xn = mol fraction of the nth substance listed
Settings: Gas, Buoyancy - hydrostatic balance with magnetic suspension - one sinker

N#N [nitrogen] + O=C=O
mass density [kg/m3]
Settings | x2 = 0.1001 | x2 = 0.1505
250.04 K, 12011 kPa | 188.824 | –
250.04 K, 14015 kPa | 220.196 | –
250.04 K, 16024 kPa | 250.228 | –
250.04 K, 18041 kPa | 278.626 | –
250.04 K, 19866 kPa | 302.682 | –
250.05 K, 1985.1 kPa | 29 | –
250.05 K, 3997.3 kPa | 59.733 | –
250.05 K, 5998.8 kPa | 91.41 | –
250.05 K, 8000 kPa | 123.81 | –
250.05 K, 10007 kPa | 156.529 | –
250.06 K, 1944.1 kPa | – | 29.337
250.06 K, 3982.7 kPa | – | 61.879
250.06 K, 5984.1 kPa | – | 95.441
250.06 K, 7996.2 kPa | – | 130.387
250.06 K, 16016 kPa | – | 267.875
250.06 K, 18019 kPa | – | 298.361
250.06 K, 19997 kPa | – | 326.225
250.07 K, 10003 kPa | – | 165.836
250.07 K, 12006 kPa | – | 201.013
250.07 K, 14014 kPa | – | 235.308
275.01 K, 6002 kPa | 80.825 | –
275.01 K, 7997.9 kPa | 108.505 | –
275.02 K, 1988.5 kPa | – | 26.992
275.02 K, 3997.1 kPa | 53.276 | –
275.02 K, 4000.6 kPa | – | 55.255
275.02 K, 5998 kPa | – | 84.088
275.02 K, 7994.3 kPa | – | 113.405
275.02 K, 10004 kPa | 136.29 | –
275.02 K, 12009 kPa | 163.678 | –
275.02 K, 14013 kPa | 190.433 | –
275.02 K, 16022 kPa | 216.33 | –
275.02 K, 18057 kPa | 241.448 | –
275.02 K, 19841 kPa | 262.442 | –
275.03 K, 9995.5 kPa | – | 142.952
275.03 K, 12000 kPa | – | 172.315
275.03 K, 14001 kPa | – | 201.02
275.03 K, 15981 kPa | – | 228.492
275.03 K, 17994 kPa | – | 255.193
275.03 K, 19983 kPa | – | 280.214
299.96 K, 17994 kPa | – | 224.784
299.96 K, 19165 kPa | 226.098 | –
299.96 K, 19977 kPa | – | 247.119
299.97 K, 1992.1 kPa | – | 24.615
299.97 K, 1997.9 kPa | 23.945 | –
299.97 K, 3982.3 kPa | – | 49.692
299.97 K, 3996.5 kPa | 48.22 | –
299.97 K, 5996.4 kPa | 72.692 | –
299.97 K, 5999.2 kPa | – | 75.467
299.97 K, 7999.7 kPa | 97.214 | –
299.97 K, 8007.8 kPa | – | 101.3
299.97 K, 10002 kPa | 121.553 | –
299.97 K, 10003 kPa | – | 126.921
299.97 K, 12006 kPa | 145.55 | –
299.97 K, 12008 kPa | – | 152.379
299.97 K, 13991 kPa | – | 177.09
299.97 K, 14010 kPa | 169.025 | –
299.97 K, 15969 kPa | – | 201.068
299.97 K, 16014 kPa | 191.829 | –
299.97 K, 17869 kPa | 212.244 | –
324.98 K, 1996 kPa | 21.979 | –
324.98 K, 1996.1 kPa | – | 22.645
324.98 K, 3995.9 kPa | – | 45.557
324.98 K, 3996.2 kPa | 44.111 | –
324.98 K, 5991.8 kPa | 66.201 | –
324.98 K, 5996.6 kPa | – | 68.599
324.98 K, 7997.6 kPa | – | 91.632
324.98 K, 8019.2 kPa | 88.521 | –
324.98 K, 9996.9 kPa | – | 114.495
324.98 K, 9998.9 kPa | 110.087 | –
324.98 K, 11991 kPa | – | 137.002
324.98 K, 11999 kPa | 131.525 | –
324.98 K, 13983 kPa | 152.335 | –
324.98 K, 14014 kPa | – | 159.405
324.98 K, 16001 kPa | 172.971 | –
324.98 K, 16006 kPa | – | 180.933
324.98 K, 18001 kPa | 192.79 | –
324.98 K, 18016 kPa | – | 202.007
324.98 K, 19621 kPa | 208.36 | –
324.98 K, 19978 kPa | – | 221.898
349.96 K, 1996.1 kPa | 20.34 | –
349.96 K, 3996.6 kPa | 40.709 | –
349.96 K, 5996.7 kPa | 60.978 | –
349.97 K, 1995.9 kPa | – | 20.947
349.97 K, 3995.3 kPa | – | 41.993
349.97 K, 5996.9 kPa | – | 63.049
349.97 K, 7995.4 kPa | – | 83.959
349.97 K, 7995.8 kPa | 81.051 | –
349.97 K, 9997.5 kPa | 100.892 | –
349.97 K, 9999.5 kPa | – | 104.724
349.97 K, 11998 kPa | 120.373 | 125.127
349.97 K, 13995 kPa | 139.425 | –
349.97 K, 14004 kPa | – | 145.221
349.97 K, 16000 kPa | 158.084 | –
349.97 K, 16008 kPa | – | 164.842
349.97 K, 17994 kPa | 176.127 | –
349.97 K, 18008 kPa | – | 183.902
349.97 K, 19378 kPa | 188.339 | –
349.97 K, 19983 kPa | – | 202.168
374.95 K, 1963.6 kPa | – | 19.172
374.95 K, 3953.7 kPa | – | 38.571
374.95 K, 5995.6 kPa | – | 58.378
374.95 K, 7997.3 kPa | – | 77.627
374.95 K, 9986.3 kPa | – | 96.527
374.95 K, 11945 kPa | – | 114.852
374.96 K, 13990 kPa | – | 133.615
374.96 K, 15999 kPa | – | 151.646
374.96 K, 17992 kPa | – | 169.101
374.96 K, 19972 kPa | – | 185.971
374.97 K, 1974.6 kPa | 18.733 | –
374.97 K, 3962.2 kPa | 37.494 | –
374.97 K, 5994.5 kPa | 56.518 | –
374.97 K, 7989.9 kPa | 74.983 | –
374.97 K, 9982.5 kPa | 93.148 | –
374.97 K, 11981 kPa | 111.044 | –
374.97 K, 13972 kPa | 128.504 | –
374.97 K, 15966 kPa | 145.587 | –
374.98 K, 17960 kPa | 162.237 | –
374.98 K, 18719 kPa | 168.45 | –
400.02 K, 1995.3 kPa | – | 18.223
400.02 K, 3995.7 kPa | – | 36.397
400.02 K, 5995.4 kPa | – | 54.424
400.02 K, 7991.2 kPa | – | 72.219
400.02 K, 9990.8 kPa | – | 89.804
400.02 K, 11986 kPa | – | 107.065
400.02 K, 13988 kPa | – | 124.054
400.02 K, 15977 kPa | – | 140.583
400.02 K, 17818 kPa | – | 155.538
400.03 K, 3994.9 kPa | 35.321 | –
400.03 K, 9992.9 kPa | 86.844 | –
400.04 K, 1995.9 kPa | 17.722 | –
400.04 K, 5992.1 kPa | 52.72 | –
400.04 K, 7980.9 kPa | 69.818 | –
400.04 K, 11987 kPa | 103.403 | –
400.04 K, 13992 kPa | 119.725 | –
400.04 K, 15984 kPa | 135.572 | –
400.04 K, 17815 kPa | 149.796 | –
400.04 K, 18908 kPa | 158.136 | –
